From US11382880B2, “Method for improving digestive health” (Brightseed, Inc., priority 2019, dated 2022)

How the values were obtained:
HNF4α mRNA = HNF4α mRNA levels by quantitative PCR; assay type: cell-based; conditions: FIG. 2
Protocol: FIG. 2 illustrates the effect of N-trans-caffeoyltyramine, N-trans-feruloyltyramine and p-coumaroyltyramine on HNF4α mRNA levels as determined by quantitative PCR. DMSO and alverine (20 μM) were used as negative and positive controls, respectively.
Expression of Insulin and HNF4α. RNA was purified using a RNEASY® chromatographic separation and isolation kits (Qiagen), and converted to cDNA using the gScript™ cDNA SuperMix (Quanta Biosciences). Q-PCR was conducted with cDNA corresponding to 2 μg of RNA using an Optic on Real-Time System (MJ Research) and QPCR SuperMix (BioPioneer). See All mRNA values were normalized to 18S rRNA values and are expressed as fold changes over vehicle-treated control.

pH Stability Assessment = assay type: physicochemical; conditions: pH 2, 7.4, 8.5 and 10; 37° C.; 0.5 and 72 hours; HPLC peak area at 280 nm
Protocol: pH Stability Assessment. Individual stock solutions were prepared in DMSO at concentrations of 10 mg/mL. Four different buffer solutions were prepared to achieve solutions with a pH of 2, 7.4, 8.5 and 10. For each pH assay, 5 μL of stock solution was added to 245 μL of buffered solution to a 2 mL tube, vortexed and incubated in a 37° C. water bath. At each timepoint, 50 μL aliquots were taken, neutralized and analyzed via HPLC analysis using a DAD detector at 280 nm. The fold change of the peak area at 280 nm was analyzed for the initial and final timepoint, 0.5 and 72 hours, respectively.

[1] = Bioavailability determination in male C57BL/6 mice; assay type: in vivo; conditions: mouse, whole blood, IV 2.0 mg/kg, oral 30.0 mg/kg, IP 30 mg/kg, route of the printed value not stated
Protocol: Bioavailability Determinations. Male C57BL/6 mice were administered N-trans-caffeoyl tyramine or N-transferuloyl tyramine via IV, intraperitoneal or oral route (three mice for each route) (Table 2).
A blood sample from each mouse was drawn at 0.25, 0.5, 1, 2, 4, 6 and 24 hours after administration. An 8 μL aliquot of blood was used for analysis. After adding 200 μL of an internal standard comprising 100 ng/mL Labetalol, 100 ng/mL dexamethasone, 100 ng/mL tolbutamide, 100 ng/mL Verapamil, 100 ng/mL Glyburide, and 100 ng/mL Celecoxib in ACN, the mixture was vortex-mixed and centrifuged at 12000 rpm for 15 minutes at 4° C. to pellet precipitated protein. Four μL of the supernatant was injected for LC-MS/MS analysis. Bioavailability (%) was calculated using AUC0-inf (% AUCExtra<20%) or AUC0-last(% AUCExtra>20%) with nominal dose.

HNF4α [2] = molecular target: T1, HNF4α (Homo sapiens, UniProt P41235); experiment: Insulin promoter-reporter assay measuring HNF4α activity (T6PNE engineered pancreatic cell); assay type: cell-based; set-up: endogenous in cells; host or cells: T6PNE engineered pancreatic cells; conditions: for HNF4α modulator activity in screening: screening of predicted plant compounds in the HNF4α assay
T1 sequence (P41235 1-474): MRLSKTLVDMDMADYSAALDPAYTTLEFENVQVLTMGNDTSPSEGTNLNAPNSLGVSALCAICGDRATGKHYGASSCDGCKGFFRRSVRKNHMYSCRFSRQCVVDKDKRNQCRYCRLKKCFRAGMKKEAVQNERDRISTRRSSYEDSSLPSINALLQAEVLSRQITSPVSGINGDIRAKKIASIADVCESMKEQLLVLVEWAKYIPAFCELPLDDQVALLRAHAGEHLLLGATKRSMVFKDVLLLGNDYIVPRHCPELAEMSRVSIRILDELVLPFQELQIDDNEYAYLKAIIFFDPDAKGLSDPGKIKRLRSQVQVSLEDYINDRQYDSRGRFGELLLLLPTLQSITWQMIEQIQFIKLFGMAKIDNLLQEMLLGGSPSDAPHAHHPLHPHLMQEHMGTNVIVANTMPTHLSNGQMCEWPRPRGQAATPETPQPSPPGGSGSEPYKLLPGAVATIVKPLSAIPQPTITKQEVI
Protocol: FIG. 1 illustrates a dose-response analysis of N-trans-caffeoyltyramine, N-trans-feruloyltyramine and p-coumaroyltyramine in an assay measuring insulin promoter activity. Dimethylsulfoxide (DMSO) and alverine (20 μM) were used as negative and positive controls, respectively.
The tyramine containing hydroxycinnamic acid amide of this disclosure are analogs of lead compounds identified in traditional screening assays for agents that modulate known signaling pathways. […] While not wishing to be bound by theory, it is believed that the tyramine containing hydroxycinnamic acid amides of this disclosure increase HNF4α activity as a result of higher affinity for the HNF4α binding site than the natural ligand, palmitic acid, which down regulates HNF4α activity. Accordingly, by increasing HNF4α activity, the compounds of this disclosure are of use in improving heal thy digestive function, thereby addressing the underlying pathogenesis of gastrointestinal disorders such as IBD, UC, and CD. Using the composition of this disclosure, health and well-being are improved and promoted.
Given the role of HNF4α in maintaining a healthy metabolism in humans, test compounds were screened for activity as HNF4α agonists (either direct or indirect effects). Using a known insulin promoter-reporter assay, Kiselyuk and colleagues (2010. J. Biomol. Screen 15(6): 663-70), screened a library of compounds for activity to promote insulin activation. […] The OTC promoter is known to be responsive to HNF4α in transient transfection assays (Inoue, et al. (2002) J. Biol. Chem. 277:25257-65).
Plant compounds in the top 10th percentile of similarity to the 18 target structures were selected and compounds predicted to be potential agonists of HNF4α activity given their chemical structural features were screened in the HNF4α assay. […] Due to hydroxyl derivatization of both phenyl rings, N-transcaffeoyltyramine is less lipophilic and therefore expected to be more bioavailable.

CaCo-2 cells = experiment: TNF-α induced tight junction damage in CaCo-2 monolayer, ZO-1 staining; assay type: cell-based; conditions: 200 ng or 300 ng TNF-α
Protocol: TNF-α is an inflammatory cytokine that increases intestinal tight junction permeability. To analyze the effect of N-trans-caffeoyltyramine on tight junctions, 200 ng or 300 ng TNF-α was added to a monolayer of epithelial CaCo-2 cells to induced tight junction damage. After TNF-α exposure, N-trans-caffeoyltyramine was added and tight junction formation was determined by antibody staining for zonula occludens (ZO) −1. […] The CaCo-2 cells was sorted for high TNF-α expression with compromised integrity of tight junctions. Increasing concentration of exogenous TNF-α from 200 ng to 300 ng reduced ZO-1 staining.

HNF4α [3] = experiment: Intestinal HNF4α expression in C57BL/6 mice after IP dosing; assay type: in vivo; conditions: IP twice a day for 14 days
Protocol: Primary Antibodies. HNF4α antibodies were used (#sc-6556, Santa Cruz Biotechnology; Santa Cruz, Calif. and #3113, Cell Signaling Technology; Danvers, Mass.). For fluorescent imaging, samples were incubated with ALEXA FLUOR® 488 green-fluorescent dye or Rhodamine labeled anti-mouse, rabbit or goat and nuclei were counterstained with DAPI (4′,6-diamidino-2-phenylindole). […] were analyzed with a conventional inverted microscope (Olympus, PlanFl 40×/0.60) or with a confocal microscope equipped with a krypton/argon laser.
To confirm the in vivo […] samples were harvested and stained to visualize HNFα expression, ZO-1 and DAPI staining.

HNF4α [4] = experiment: HNF4α expression in the intestine of DIO mice; assay type: in vivo; conditions: villi and crypt
Source text: FIG. 4 illustrates HNF4α is increased in the intestine of DIO mice treated with NCT.
(§1) Intestine from mice treated with DMSO or N-trans-caffeoyltyramine were examined histologically. Gross morphological appearance was unchanged. […] In both, HNF4α was highly expressed in the crypt, with much less being detectable in the villi (see FIG. 4). […] Paneth cells are specialized secretory cells that play a critical role in defenses against intestinal microbes. To that end, they secrete a variety of antimicrobial peptides. Of note, Paneth cells play an important role in IBD pathogenesis. High fat diet has been reported to reduce the number of Paneth cells, and our studies reproduced that finding (see FIG. 4), but the mechanism by which that occurs has not been understood.

Paneth cells = experiment: Number of Paneth cells in the intestine of DIO mice; assay type: in vivo; conditions: DIO mice (high fat diet)
Source text: FIG. 5 illustrates paneth cells are increased in the intestine of DIO mice treated with NCT.
as §1

Intestine = experiment: Histological examination of intestine, gross morphology; assay type: in vivo; conditions: mice treated with DMSO or N-trans-caffeoyltyramine
Source text: as §1

HNF4α [5] = molecular target: T1, HNF4α; set-up: endogenous in cells; host or cells: T6PNE engineered pancreatic cells; conditions: Lee, et al. (2013); cited from earlier work
HNF4α [6] = molecular target: T1, HNF4α; conditions: cited from earlier work
HNF4α [7] = molecular target: T1, HNF4α; set-up: endogenous in cells; host or cells: T6PNE engineered pancreatic cells; conditions: Kiselyuk, et al. (2012); cited from earlier work

COc1cc(/C=C/C(=O)NCCc2ccc(O)cc2)ccc1O [N-trans-feruloyltyramine]
HNF4α gene expression (quantitative PCR) (HNF4α mRNA): upregulated | pH Stability (pH Stability Assessment): Stable | bioavailability [1]: ~7% | HNF4α modulator activity in screening (HNF4α [2]): able to act as HNF4α modulators

COc1cc(/C=C\C(=O)NCCc2ccc(O)cc2)ccc1O [cis-feruloyltyramine]
HNF4α gene expression (quantitative PCR) (HNF4α mRNA): inactive

COc1cc(/C=C/C(=O)NCC(O)c2ccc(O)cc2)ccc1O (stereo not drawn) [N-trans-feruloyloctopamine]
HNF4α gene expression (quantitative PCR) (HNF4α mRNA): inactive

O=C(/C=C/c1ccc(O)c(O)c1)NCCc1ccc(O)cc1 [N-trans-caffeoyltyramine]
HNF4α gene expression (quantitative PCR) (HNF4α mRNA): upregulated | pH Stability (pH Stability Assessment): Acid Stable | bioavailability [1]: ~11% | Effect on TNF-α reduced ZO-1 staining (tight junctions) (CaCo-2 cells): reversed the effects of TNF-α on ZO-1 | HNF4α expression in intestinal lining (HNF4α [3]): induced HNF4α expression in the intestinal lining | HNF4α expression in intestine (HNF4α [4]): large increase in HNF4α expression throughout | HNF4α expression in intestine (HNF4α [4]; listed as NCT): increased | Number of Paneth cells (Paneth cells): complete recovery in the number of Paneth cells | Number of Paneth cells (Paneth cells; listed as NCT): increased | Gross morphological appearance of intestine (Intestine): unchanged | Potency in activating HNF4α compared with Alverine (HNF4α [2]; FIG. 1, alverine 20 μM positive control): roughly an order-of-magnitude more potent than Alverine | HNF4α modulator activity in screening (HNF4α [2]): able to act as HNF4α modulators

O=C(/C=C/c1ccc(O)cc1)NCCc1ccc(O)c(O)c1 [N-coumaroyldopamine]
HNF4α gene expression (quantitative PCR) (HNF4α mRNA): inactive

O=C(/C=C\c1ccc(O)c(O)c1)NCCc1ccc(O)cc1 [N-cis-caffeoyltyramine]
HNF4α modulator activity in screening (HNF4α [2]): able to act as HNF4α modulators

CC(Cc1cccc(C(F)(F)F)c1)NCCOC(=O)c1ccccc1 (stereo not shown) [Benfluorex]
Activity as HNF4α activators (HNF4α [5]): activity as HNF4α activators

O=C(/C=C/c1ccc(O)cc1)NCC(O)c1ccc(O)cc1 (stereo not shown) [pcoumaroyloctopamine]
HNF4α gene expression (quantitative PCR) (HNF4α mRNA): inactive

O=C(/C=C/c1ccc(O)cc1)NCCc1ccc(O)cc1 [p-coumaroyltyramine]
HNF4α gene expression (quantitative PCR) (HNF4α mRNA): upregulated | pH Stability (pH Stability Assessment): Acid Stable | HNF4α modulator activity in screening (HNF4α [2]): able to act as HNF4α modulators

CCN(CCCCc1ccccc1)CCc1ccccc1 [compound 1]
HNF4α agonistic activity in OTC promoter assay (HNF4α [6]): HNF4α agonistic activity | Insulin activation in insulin promoter-reporter screen (HNF4α [7]): insulin activator

CCN(CCCc1ccccc1)CCCc1ccccc1 [Alverine]
Activity as HNF4α activators (HNF4α [5]): activity as HNF4α activators
